Test results as given in US20240358692A1, “TREATMENT OF SCLERODERMA” (Aisa Pharma, Inc., priority 2023, published 2024).

Experiments:
[1] = system: participants with SSc-RP; test: Average duration of weekly RP attacks (minutes), patient diary; assay type: in vivo, human; conditions: Tadalafil 5 mg
From the text: The absolute change in average duration of weekly RP attacks from baseline to the end of each dosing period was and will be a secondary outcome variable. The sponsor-developed participant-informed diary was and will be used to record data. Average duration of weekly RP attacks is defined as the total duration of RP attacks divided by total number of RP attacks within the last 7 days of each dosing period. Total duration of RP attacks during the last 7 days of screening period divided by the total number of RP attacks will be used as baseline for the analysis of all periods. The variable will be calculated similar to frequency data as before.

[2] = system: participants with SSc-RP; test: SHAQ - Visual Analog Scale - Raynaud's; assay type: in vivo, human
From the text: The SHAQ includes a Raynaud's VAS, which will be reported at screening and each in-clinic visit. The absolute change in Raynaud-VAS, assessed by the participants response to the SHAQ question ‘In the past 7 days, how much have your Raynaud's interfered with your daily activities?’ at baseline and the end of each dosing period will be calculated similar to frequency data as before.
The standard, validated, patient reported outcome measures tool for SSc patients, the SHAQ, was collected at the time points specified in the study schedules (FIG. 2 and FIGS. 4A and 4B) to assess the participant's quality of life. The SHAQ included a Raynaud's VAS that will also be reported separately.

[3] = Excluding Outliers, ITT Population - Part A, last 7 days of dosing period
[4] = by Baseline RCS, second RCS subgroup of table (not named), ITT Population - Part A
[5] = excluding outliers, 2nd baseline RCS subgroup, ITT Part A
[6] = last 7 days of dosing period, ITT Part A

## CN1CC(=O)N2[C@H](c3ccc4c(c3)OCO4)c3[nH]c4ccccc4c3C[C@@H]2C1=O [Tadalafil]
[1]; [3]
  Average Duration of Weekly RP Attacks (All Attacks), Mean: 5.95 min
  Average Duration of Weekly RP Attacks (All Attacks), Median: 5.95 min
[1]; [4]
  Change from Baseline in average duration of weekly symptomatic RP attacks, Mean: 140.74 min
  Change from Baseline in average duration of weekly symptomatic RP attacks, Median: 140.74 min
  Percent Change from Baseline in average duration of weekly symptomatic RP attacks, Mean: 5.21%
  Percent Change from Baseline in average duration of weekly symptomatic RP attacks, Median: 5.21%
[1]; [5]
  Average duration of weekly RP attacks, Change from Baseline, Mean: -4.98 min
  Average duration of weekly RP attacks, Change from Baseline, Median: -4.98 min
  Average duration of weekly RP attacks, Percent Change from Baseline, Mean: −45.55%
  Average duration of weekly RP attacks, Percent Change from Baseline, Median: −45.55%
[1]; [6]
  Average Duration of weekly symptomatic RP attacks, Mean: 412.29 min
  Average Duration of weekly symptomatic RP attacks, Median: 412.29 min
[2]; Tadalafil 5 mg (N = 5), Day 12, PP Population, Part A
  SHAQ Visual Analogue Scale - Raynaud's, Change from Baseline, Median: −0.500
[2]; tadalafil 5 mg
  VAS Raynaud's Change from Baseline Max: −0.10
  VAS Raynaud's Change from Baseline Mean: −0.825
  VAS Raynaud's Change from Baseline Median: −0.500
  VAS Raynaud's Change from Baseline Min: −2.20
  VAS Raynaud's Change from Baseline Q1: −1.500
  VAS Raynaud's Change from Baseline Q3: −0.150
  VAS Raynaud's Day 12 Max: 9.20
  VAS Raynaud's Day 12 Median: 5.200
  VAS Raynaud's Day 12 Min: 0.20
  VAS Raynaud's Day 12 Q1: 2.200
  VAS Raynaud's Day 12 Q3: 7.700
  VAS Raynaud's Percent Change from Baseline Max: −3.1%
  VAS Raynaud's Percent Change from Baseline Mean: −19.71%
  VAS Raynaud's Percent Change from Baseline Median: −20.67%
  VAS Raynaud's Percent Change from Baseline Min: −34.4%
  VAS Raynaud's Percent Change from Baseline Q1: −33.85%
  VAS Raynaud's Percent Change from Baseline Q3: −5.56%
